Several values for one entry are separate records, joined by “and”; a condition that tells them apart may be missing. Identical values can stand only once. Like-named read-outs stand apart in the source and are kept apart here.
Columns and labels:
[1] = PK profiles after IV and PO administration to BALB/c mice; format: in vivo; conditions: for MRT last: read-out: MRT(0-t); for MRT inf: read-out: MRT(0-∞)
From the text: The pharmacokinetics and oral bioavailability of Compound 42 were investigated in mice following single intravenous (IV) injection and oral administration (PO).

[2] = system: IFNB, CXCL10, IFIT3, ISG15, IRF7 and OAS1; test: Gene expression analysis by real-time quantitative PCR in THP-1 cells; format: cell-based, Human; conditions: with cGAMP (1 μg/ml), 6 hours, FIG. 4
Protocol: To confirm gene expression, THP-1 cells were placed in a 24-well plate (SPL) and treated with the compound of the present invention and cGAMP (1 μg/ml) for 6 hours. After culturing, RNA was extracted from the cells using NucleoSpin RNA Plus (MN). mRNA expression levels of IFNB, CXCL10, IFIT3, ISG15, IRF7 and OAS1 were measured by real-time qPCR (CFX96 Real-Time PCR Detection System, Bio-Rad) using IQ SYBR Green Supermix (Bio-Rad). GAPDH was used as a housekeeping gene to normalize cytokine mRNA levels.

[3] = BALB/c, mouse, blood, po, 20 mg/kg, PO 20.0 mg/kg, individual animals
[4] = BALB/c, mouse, blood, po, 20 mg/kg, PO 20.0 mg/kg, mean n=3
[5] = IV 5.0 mg/kg, individual animals, 5 mg/kg
[6] = PO 20.0 mg/kg, individual animals, 20 mg/kg

**Q.** Which concentration at 6 h ([1]; BALB/c, mouse, blood, po, 20 mg/kg, PO 20 mg/kg, 6.00 h, mean, read-out: concentration in blood, Mean PO) does the source give for `CC(=O)c1ccc(-c2cc(C(=O)c3ccc(C(F)(F)F)cc3)n3ccccc23)cc1` [Compound 42] here?
**A.** 111 ng/mL

**Q.** What about the concentration at 24 h ([1]; BALB/c, mouse, blood, po, 20 mg/kg, PO 20 mg/kg, 24.00 h, individual animals 201-203, read-out: concentration in blood) of the same compound?
**A.** 39 ng/mL

**Q.** What about the concentration at 24 h ([1]; BALB/c, mouse, blood, po, 20 mg/kg, PO 20 mg/kg, 24.00 h, mean, read-out: concentration in blood, Mean PO) of the same compound?
**A.** 42.4 ng/mL

**Q.** And the AUC(0-t) ([1]; BALB/c, mouse, blood, po, 20 mg/kg, PO 20.0 mg/kg, individual animals, read-out: AUC(0-t))?
**A.** 2100 ng·h/mL

**Q.** What about the AUC(0-inf) ([1]; BALB/c, mouse, blood, po, 20 mg/kg, PO 20.0 mg/kg, individual animals, read-out: AUC(0-∞)) of the same compound?
**A.** 2750 ng·h/mL

**Q.** And the Cmax ([1]; BALB/c, mouse, blood, po, 20 mg/kg, PO 20.0 mg/kg, individual animals, read-out: Cmax)?
**A.** 211 ng/mL

**Q.** What about the MRT last [1, 3] of the same compound?
**A.** 7.66 h

**Q.** And the MRT inf [1, 3]?
**A.** 15.5 h

**Q.** And the half-life ([1]; BALB/c, mouse, blood, po, 20 mg/kg, PO 20.0 mg/kg, individual animals, read-out: T1/2 (converted))?
**A.** 11.6 h

**Q.** What about the AUC(0-t) ([1]; BALB/c, mouse, blood, po, 20 mg/kg, PO 20.0 mg/kg, mean n=3, read-out: AUC(0-t)) of the same compound?
**A.** 2320 ng·h/mL

**Q.** What about the AUC(0-inf) ([1]; BALB/c, mouse, blood, po, 20 mg/kg, PO 20.0 mg/kg, mean n=3, read-out: AUC(0-∞)) of the same compound?
**A.** 3030 ng·h/mL

**Q.** What about the Cmax ([1]; BALB/c, mouse, blood, po, 20 mg/kg, PO 20.0 mg/kg, mean n=3, read-out: Cmax) of the same compound?
**A.** 225 ng/mL

**Q.** What about the MRT last [1, 4] of the same compound?
**A.** 7.64 h

**Q.** And the MRT inf [1, 4]?
**A.** 15.4 h

**Q.** What about the half-life ([1]; BALB/c, mouse, blood, po, 20 mg/kg, PO 20.0 mg/kg, mean n=3, read-out: T1/2 (converted)) of the same compound?
**A.** 11.6 h

**Q.** And the AUC(0-inf) ([1]; BALB/c, mouse, blood, po, 20 mg/kg, PO administration of 20 mpk, read-out: AUC∞)?
**A.** 3030 ng·h/mL

**Q.** And the Cmax ([1]; BALB/c, mouse, blood, po, 20 mg/kg, PO administration of 20 mpk, read-out: Cmax)?
**A.** 224 ng/mL

**Q.** And the half-life ([1]; BALB/c, mouse, blood, po, 20 mg/kg, PO administration of 20 mpk, read-out: half-life (converted))?
**A.** 11.6 h

**Q.** What about the Tmax ([1]; BALB/c, mouse, blood, IV 5.0 mg/kg, mean n=3) of the same compound?
**A.** 0.083 h

**Q.** What about the Tmax ([1]; BALB/c, mouse, blood, PO 20.0 mg/kg, individual animals) of the same compound?
**A.** 1 h

**Q.** What about the concentration in blood ([1]; IV 5 mg/kg, 0.083 h, individual animals 101-103, 5 mg/kg) of the same compound?
**A.** 2724.650 ng/mI and 2922.650 ng/mI

**Q.** What about the concentration in blood ([1]; IV 5 mg/kg, 0.25 h, individual animals 101-103, 5 mg/kg) of the same compound?
**A.** 1228.390 ng/mI and 1506.240 ng/mI

**Q.** What about the concentration in blood ([1]; IV 5 mg/kg, 0.50 h, individual animals 101-103, 5 mg/kg) of the same compound?
**A.** 741.777 ng/mI and 916.427 ng/mI

**Q.** What about the concentration in blood ([1]; IV 5 mg/kg, 1.00 h, individual animals 101-103, 5 mg/kg) of the same compound?
**A.** 319.272 ng/mI and 350.728 ng/mI

**Q.** What about the concentration in blood ([1]; IV 5 mg/kg, 4.00 h, individual animals 101-103, 5 mg/kg) of the same compound?
**A.** 129.441 ng/mI and 94.754 ng/mI

**Q.** And the concentration in blood ([1]; IV 5 mg/kg, 24.00 h, individual animals 101-103, 5 mg/kg)?
**A.** 45.260 ng/mI and 30.044 ng/mI

**Q.** What about the “AUCINF_obs AUC(0-∞)” value [1, 5] of the same compound?
**A.** 4161.11 ng·h/mL and 3533.38 ng·h/mL

**Q.** And the “AUClast AUC(0-t)” value [1, 5]?
**A.** 3542.76 ng·h/mL and 3195.55 ng·h/mL

**Q.** What about the C0 [1, 5] of the same compound?
**A.** 4048.20 ng/mL and 4063.09 ng/mL

**Q.** What about the “Cl_obs Cl” value [1, 5] of the same compound?
**A.** 20.0267 mL/min/kg and 23.5847 mL/min/kg

**Q.** And the Cmax [1, 5]?
**A.** 2724.65 ng/mL and 2922.65 ng/mL

**Q.** What about the “HL_Lambda_z T1/2” value [1, 5] of the same compound?
**A.** 9.47 h and 7.79 h

**Q.** And the “MRTINF_obs MRT(0-∞)” value [1, 5]?
**A.** 9.83 h and 6.90 h

**Q.** And the “MRTlast MRT(0-t)” value [1, 5]?
**A.** 4.97 h and 3.90 h

**Q.** What about the “Vss_obs Vss” value [1, 5] of the same compound?
**A.** 11.80918 L/kg and 9.76009 L/kg

**Q.** And the “Vz_obs Vz” value [1, 5]?
**A.** 16.41627 L/kg and 15.912 L/kg

**Q.** And the concentration in blood ([1]; PO 20 mg/kg, 0.25 h, individual animals 201-203, 20 mg/kg)?
**A.** 114.648 ng/mI and 79.841 ng/mI

**Q.** What about the concentration in blood ([1]; PO 20 mg/kg, 0.50 h, individual animals 201-203, 20 mg/kg) of the same compound?
**A.** 164.520 ng/mI and 165.563 ng/mI

**Q.** And the concentration in blood ([1]; PO 20 mg/kg, 1.00 h, individual animals 201-203, 20 mg/kg)?
**A.** 232.437 ng/mI and 230.000 ng/mI

**Q.** And the concentration in blood ([1]; PO 20 mg/kg, 3.00 h, individual animals 201-203, 20 mg/kg)?
**A.** 155.307 ng/mI and 179.295 ng/mI

**Q.** And the concentration in blood ([1]; PO 20 mg/kg, 6.00 h, individual animals 201-203, 20 mg/kg)?
**A.** 123.919 ng/mI and 111.651 ng/mI

**Q.** And the concentration in blood ([1]; PO 20 mg/kg, 24.00 h, individual animals 201-203, 20 mg/kg)?
**A.** 37.325 ng/mI and 50.885 ng/mI

**Q.** And the “AUC(0-t)” value [1, 6]?
**A.** 2406.25 ng·h/mL and 2448.08 ng·h/mL

**Q.** And the “AUC(0-∞)” value [1, 6]?
**A.** 2959.50 ng·h/mL and 3385.50 ng·h/mL

**Q.** What about the Cmax [1, 6] of the same compound?
**A.** 232.44 ng/mL and 230.00 ng/mL

**Q.** What about the F [1, 6] of the same compound?
**A.** 15.87% and 18.22% and 18.54%

**Q.** What about the “MRT(0-t)” value [1, 6] of the same compound?
**A.** 7.22 h and 8.04 h

**Q.** And the “MRT(0-∞)” value [1, 6]?
**A.** 13.12 h and 17.56 h

**Q.** And the T1/2 [1, 6]?
**A.** 10.27 h and 12.77 h

**Q.** What about the F ([1]; PO 20.0 mg/kg, mean n=3) of the same compound?
**A.** 17.55%

**Q.** What about the “cGAMP-induced expression of interferon-stimulated genes (IFN-beta, IP-10, ISG15, IRF7, IFIT3, OAS1)” value [2] of the same compound?
**A.** significantly increased

Reference: patent publication US20230390319A1, “INTERFERON GENE STIMULATOR COMPOSITION COMPRISING INDOLIZINE DERIVATIVE AS ACTIVE INGREDIENT” (AJOU UNIVERSITY INDUSTRY-ACADEMIC COOPERATION FOUNDATION, priority 2020, published 2023)
